Experimental data as given in patent US9663460B2, “Sulfur derivatives as chemokine receptor modulators” (ALLERGAN, INC., priority 2010, dated 2017).

What follows are compounds tested against CCR2 (Homo sapiens (Human), UniProt P41597) (assay: Calcium activity assayed on the FLIPR Tetra in HEK-Gqi5 cells stably expressing CCR2). Conditions: FLIPR Tetra calcium assay.
Format: cell-based

Chain of CCR2 (P41597 whole entry, species assumed): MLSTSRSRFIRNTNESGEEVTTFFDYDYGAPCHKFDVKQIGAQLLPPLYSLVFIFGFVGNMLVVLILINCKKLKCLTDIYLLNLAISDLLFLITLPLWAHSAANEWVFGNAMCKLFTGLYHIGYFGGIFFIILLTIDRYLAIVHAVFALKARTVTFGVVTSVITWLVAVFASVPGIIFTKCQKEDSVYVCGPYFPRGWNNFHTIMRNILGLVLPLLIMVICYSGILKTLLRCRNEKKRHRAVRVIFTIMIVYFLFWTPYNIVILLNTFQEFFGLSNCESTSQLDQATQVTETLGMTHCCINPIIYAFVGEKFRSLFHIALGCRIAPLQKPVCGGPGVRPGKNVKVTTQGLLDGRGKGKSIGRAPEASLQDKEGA

Row | Compound | CCR2 % ANTAGONISM | IC50
1 | O=S(=O)(Nc1cc(Cl)ccc1[S+]([O-])CCc1cn[nH]c1)c1cc2ccccc2o1 (stereo not shown) [N-(5-chloro-2-{[2-(1H-pyrazol-4-yl)ethyl]sulfinyl}phenyl)-1-benzofuran-2-sulfonamide] | 67% | 1060 nM
2 | Cc1n[nH]c(C)c1CC[S+]([O-])c1ccc(Cl)cc1NS(=O)(=O)c1cc2ccccc2o1 (stereo not shown) [N-(5-chloro-2-{[2-(3,5-dimethyl-1H-pyrazol-4-yl)ethyl]sulfinyl}phenyl)-1-benzofuran-2-sulfonamide] | 83% | 3050 nM
3 | Cc1n[nH]c(C)c1CCS(=O)(=O)c1ccc(Cl)cc1NS(=O)(=O)c1cc2ccccc2o1 [N-(5-chloro-2-{[2-(3,5-dimethyl-1H-pyrazol-4-yl)ethyl]sulfonyl}phenyl)-1-benzofuran-2-sulfonamide] | 96% | 1090 nM
4 | CN(C)CCC[S+]([O-])c1ccc(Cl)cc1NS(=O)(=O)c1cc2ccccc2o1 (stereo not shown) [N-(5-chloro-2-{[3-(dimethylamino)propyl]sulfinyl}phenyl)-1-benzofuran-2-sulfonamide] | 81% | –
5 | CN(C)CCCS(=O)(=O)c1ccc(Cl)cc1NS(=O)(=O)c1cc2ccccc2o1 [N-(5-chloro-2-{[3-(dimethylamino)propyl]sulfonyl}phenyl)-1-benzofuran-2-sulfonamide] | 96% | –
6 | CN(C)CCCSc1ccc(Cl)cc1NS(=O)(=O)c1cc2ccccc2o1 [N-(5-chloro-2-{[3-(dimethylamino)propyl]thio}phenyl)-1-benzofuran-2-sulfonamide] | 106% | 2040 nM
7 | C[N+](C)([O-])CCCS(=O)(=O)c1ccc(Cl)cc1NS(=O)(=O)c1cc2ccccc2o1 [N-(5-chloro-2-{[3-(dimethylnitroryl)propyl]sulfonyl}phenyl)-1-benzofuran-2-sulfonamide] | 83% | –
8 | O=S(=O)(Nc1cc(Cl)ccc1[S+]([O-])Cc1cccc[n+]1[O-])c1cc2ccccc2o1 (stereo not shown) [N-(5-chloro-2-{[(1-oxidopyridin-2-yl)methyl]sulfinyl}phenyl)-1-benzofuran-2-sulfonamide] | 101% | 846 nM
9 | O=S(=O)(Cc1cccc[n+]1[O-])c1ccc(Cl)cc1NS(=O)(=O)c1cc2ccccc2o1 [N-(5-chloro-2-{[(1-oxidopyridin-2-yl)methyl]sulfonyl}phenyl)-1-benzofuran-2-sulfonamide] | 102% | 663 nM
10 | O=S(=O)(Cc1ccc[n+]([O-])c1)c1ccc(Cl)cc1NS(=O)(=O)c1cc2ccccc2o1 [N-(5-chloro-2-{[(1-oxidopyridin-3-yl)methyl]sulfonyl}phenyl)-1-benzofuran-2-sulfonamide] | 81% | 1750 nM
11 | CCCn1cnc(C[S+]([O-])c2ccc(Cl)cc2NS(=O)(=O)c2cc3ccccc3o2)c1 (stereo not shown) [N-(5-chloro-2-{[(1-propyl-1H-imidazol-4-yl)methyl]sulfinyl}phenyl)-1-benzofuran-2-sulfonamide] | 93% | 806 nM
12 | CCCn1cnc(CS(=O)(=O)c2ccc(Cl)cc2NS(=O)(=O)c2cc3ccccc3o2)c1 [N-(5-chloro-2-{[(1-propyl-1H-imidazol-4-yl)methyl]sulfonyl}phenyl)-1-benzofuran-2-sulfonamide] | 98% | 804 nM
13 | CCCn1cnc(CSc2ccc(Cl)cc2NS(=O)(=O)c2cc3ccccc3o2)c1 [N-(5-chloro-2-{[(1-propyl-1H-imidazol-4-yl)methyl]thio}phenyl)-1-benzofuran-2-sulfonamide] | 79% | 1280 nM
14 | O=c1[nH]cc(C[S+]([O-])c2ccc(Cl)cc2NS(=O)(=O)c2cc3ccccc3o2)c(=O)[nH]1 (stereo not shown) [N-(5-chloro-2-{[(2,4-dioxo-1,2,3,4-tetrahydropyrimidin-5-yl)methyl]sulfinyl}phenyl)-1-benzofuran-2-sulfonamide] | 21% | 3080 nM
15 | O=c1[nH]cc(CS(=O)(=O)c2ccc(Cl)cc2NS(=O)(=O)c2cc3ccccc3o2)c(=O)[nH]1 [N-(5-chloro-2-{[(2,4-dioxo-1,2,3,4-tetrahydropyrimidin-5-yl)methyl]sulfonyl}phenyl)-1-benzofuran-2-sulfonamide] | 0% | –
16 | O=c1cc(C[S+]([O-])c2ccc(Cl)cc2NS(=O)(=O)c2cc3ccccc3o2)[nH]c(=O)[nH]1 (stereo not shown) [N-(5-chloro-2-{[(2,6-dioxo-1,2,3,6-tetrahydropyrimidin-4-yl)methyl]sulfinyl}phenyl)-1-benzofuran-2-sulfonamide] | 62% | –
17 | O=c1cc(CS(=O)(=O)c2ccc(Cl)cc2NS(=O)(=O)c2cc3ccccc3o2)[nH]c(=O)[nH]1 [N-(5-chloro-2-{[(2,6-dioxo-1,2,3,6-tetrahydropyrimidin-4-yl)methyl]sulfonyl}phenyl)-1-benzofuran-2-sulfonamide] | 70% | –
18 | O=c1cc(CSc2ccc(Cl)cc2NS(=O)(=O)c2cc3ccccc3o2)[nH]c(=O)[nH]1 [N-(5-chloro-2-{[(2,6-dioxo-1,2,3,6-tetrahydropyrimidin-4-yl)methyl]thio}phenyl)-1-benzofuran-2-sulfonamide] | 98% | 2370 nM

The next lines start with the values.

Row | CCR2 % ANTAGONISM | IC50 | Compound
19 | 95% | 264 nM | Nc1cccc(CS(=O)(=O)c2ccc(Cl)cc2NS(=O)(=O)c2cc3ccccc3o2)[n+]1[O-] [N-(2-{[(6-amino-1-oxidopyridin-2-yl)methyl]sulfonyl}-5-chlorophenyl)-1-benzofuran-2-sulfonamide]
20 | 99% | 28 nM | Nc1cccc(C[S+]([O-])c2ccc(Cl)cc2NS(=O)(=O)c2cc3ccccc3o2)n1 (stereo not shown) [N-(2-{[(6-aminopyridin-2-yl)methyl]sulfinyl}-5-chlorophenyl)-1-benzofuran-2-sulfonamide]
21 | 102% | 15 nM | Nc1cccc(CS(=O)(=O)c2ccc(Cl)cc2NS(=O)(=O)c2cc3ccccc3o2)n1 [N-(2-{[(6-aminopyridin-2-yl)methyl]sulfonyl}-5-chlorophenyl)-1-benzofuran-2-sulfonamide]
22 | 94% | 32 nM | Nc1cccc(CSc2ccc(Cl)cc2NS(=O)(=O)c2cc3ccccc3o2)n1 [N-(2-{[(6-aminopyridin-2-yl)methyl]thio}-5-chlorophenyl)-1-benzofuran-2-sulfonamide]
23 | 93% | 570 nM | O=S(=O)(CCc1cn[nH]c1)c1ccc(Cl)cc1NS(=O)(=O)c1cc2ccccc2o1 [N-(5-chloro-2-{[2-(1H-pyrazol-4-yl)ethyl]sulfonyl}phenyl)-1-benzofuran-2-sulfonamide]
24 | 91% | 412 nM | O=S(=O)(Nc1cc(Cl)ccc1SCCc1cn[nH]c1)c1cc2ccccc2o1 [N-(5-chloro-2-{[2-(1H-pyrazol-4-yl)ethyl]thio}phenyl)-1-benzofuran-2-sulfonamide]
25 | 89% | 279 nM | Cc1n[nH]c(C)c1CCSc1ccc(Cl)cc1NS(=O)(=O)c1cc2ccccc2o1 [N-(5-chloro-2-{[2-(3,5-dimethyl-1H-pyrazol-4-yl)ethyl]thio}phenyl)-1-benzofuran-2-sulfonamide]
26 | 101% | 646 nM | O=S(=O)(Nc1cc(Cl)ccc1[S+]([O-])Cc1ccc[n+]([O-])c1)c1cc2ccccc2o1 (stereo not shown) [N-(5-chloro-2-{[(1-oxidopyridin-3-yl)methyl]sulfinyl}phenyl)-1-benzofuran-2-sulfonamide]
